Measurements from US20100279990A1, “ANTIPROLIFERATIVE COMPOUNDS, COMPOSITIONS AND METHODS OF USE” (RAMOT AT TEL-AVIV UNIVERSITY LTD., priority 2006, published 2010).
Read-outs that look alike come from different tables or passages of the source.

Columns and labels:
[1] = test system: human colon carcinoma cells (HT29); test: HT29 human colon carcinoma s.c. tumor in Nude CD1 male mice; format: in vivo
Source text: This example illustrates the effect of several compounds, including an exemplary compound of the present invention, on tumor volume. tumor weight and body weight in mice. Nude CD1 male mice were purchased from Harlan (Israel). Animals were housed under controlled conditions (temperature, humidity) and were given food and water ad libitum. After one week of acclimatization animals were inoculated s.c. with human colon carcinoma cells (HT29) (2,000,000 cell/animals.). Therapy began 8 days after inoculation, at which time the animals were divided randomly into 4 groups (7-8 mice/group) and administered ip 3 times weekly for 4 weeks with the following compounds: […] Body weight and tumor volume were measured weekly. Tumor volume is defined as (shortest diameter)^2×(longest diameter)×0.5. At the end of the treatment, animals were sacrificed and tumors and organs collected and weighed.

[2] = test system: CEM/C1 human leukemia cells; test: Cell proliferation of CEM/C1 human leukemia cells, 3H thymidine incorporation; format: cell-based; conditions: for cell proliferation: 1 μM, 3H thymidine incorporation 24 hours; for effect on cell proliferation: already evident at 1 μM; for inhibition at 10 µM: Homo sapiens, 3H thymidine incorporation
Description: […] Cells, 10,000/well, were harvested and the incorporated radioactivity was determined by liquid scintillation in a beta counter.

[3] = test system: CEM/C1 cell-lines (camptothecin resistant human T-cell leukemia); test: Viability of CEM/C1 cell-line, alamar blue; format: cell-based; conditions: 1-30 μM
Source text: This cell-line is a camptothecin (CPT) resistant derivative of the human T-cell leukemia purchased from ATCC (USA). […] The results are depicted in FIG. 14. Each point represents the mean+/−SEM of 4 determinations.

[4] = test system: human Jurkat lymphoma cells; test: Viability of human Jurkat lymphoma cells, alamar blue staining; format: cell-based; conditions: for IC50: Homo sapiens, 48 hr, alamar blue
Description: This example illustrates cell viability data derived from the incubation of a human. […] The results are depicted in FIGS. 1A, 1B, and 1C. […] See Nociari et al., J. Immunol. […] Each point represents the mean+/−SE of 4 determinations.

[5] = test system: human Jurkat lymphoma cells; test: Viability of human Jurkat lymphoma cells, dexamethasone alone and in combination; format: cell-based; conditions: Homo sapiens, 20 μM alone, FIG. 13B, read-out: inhibition of cell viability
[6] = test system: human colon carcinoma cells (HT29)
Jurkat Lymphoma cells = test: Viability of Jurkat Lymphoma cells, combination with Doxorubicin; format: cell-based; conditions: Homo sapiens, Doxorubicin 20 μM alone, read-out: inhibition of cell viability
[7] = test system: human colon carcinoma cells (HT29); test: cells; conditions: HT-29, read-out: cell viability
[8] = test system: Con-A activated naive mouse splenocytes; test: Con-A-induced mouse splenocyte proliferation, alamar blue staining; format: cell-based
Source text: This example illustrates cell viability data obtained by separately administering different concentrations of compound (Ia), paroxetine, citalopram, and ecitalopram to Con-A activated naive mouse splenocytes. FIG. 3A depicts the comparative effect of compound (Ia), paroxetine, citalopram and ecitalopram on Con-A-induced mouse splenocyte proliferation using alamar blue staining after 48 hr. Each point represents the mean+/−SE of 5 determinations.

[9] = test system: Caspase 3 activity of LS1034 human colon MDR carcinoma cells; test: Caspase-3 activity in LS1034 human colon MDR carcinoma cells; format: cell-based; conditions: 10 or 20 μM, 4 hr after exposure
Description: Caspase 3 activity was measured by an enzymatic fluorimetric method using a fluorigenic substrate (Ac-DEVD-AMC), which produces blue fluorescence detected at 360 nm wavelength. […] When AMC is cleaved from the substrate by caspase-3, and caspase-3-like enzymes, it produces a yellow-green fluorescence, which can be monitored by a fluorimeter at 460 nm. The amount of yellow green fluorescence is proportional to the activity of caspase-3 in the cell extract sample.
Whole cell lysate was added to a buffer containing 100 μM peptide substrate, 100 mM HEPES, 10% glycerol, 1 mM EDTA and 10 mM dithiothreitol. Measurements were taken every 5 min for 80 min. These experiments were also monitored in the presence of a specific caspase-3 inhibitor, DEVD-AMC-CHO, which was added after 45 or 60 min to the reaction mixture, to ascertain the specificity of the enzyme.

[10] = test system: human keratinocytes (HaCat cells); test: Viability of human keratinocytes (HaCat cells), neutral red staining; format: cell-based; conditions: 24 hr, read-out: IC50, cell viability
human glioma U87 cells = test: Viability of human glioma U87 cell-line; format: cell-based; conditions: FIG. 9
[11] = test system: c-jun and p-c-jun expression in HaCat cells; test: Western blot of c-jun and p-c-jun expression in HaCat cells; format: cell-based, human; conditions: 15 μM, 1 hr
Source text: For each sample 2×10^7 cells were used. The cells were lysed, and equal amounts of protein was fractionated on polyacrylamide gel and then transferred to PVDF membrane. The amount of the protein was detected by immuno-blotting with monoclonal anti-c-Jun or p-c-Jun antibodies (Cayman, Ann Arbor, Mich., USA). A second antibody conjugated to horseradish peroxidase was used and visualized with chemiluminescent Kit (Pierce, Rockford, Ill., USA) on film. […] Activation of the […] pathway produces p-c-Jun as a major end, while initiating apoptosis in certain cell-lines.

human tumor cell lines = test: In vitro antitumor activity in panel of 37 human tumor cell lines (Monolayer Assay, PI), summary; format: cell-based; conditions: mean over human cancer cell-lines
[12] = FIG. 1C, read-out: IC50, inhibition of cell viability

For `O=c1[nH]cc(F)c(=O)[nH]1` [5 FU, fluorouracil, reference compound], the tumor volume ([1]; HT29 tumor in nude mice, ip 3 times weekly, after 3 and 4 weeks of therapy, FIG. 16) was “significantly decreased compared to the control groups”.

With `OCCCC#Cc1cc2c(cc1OC[C@@H]1CNCC[C@H]1c1ccc(F)cc1)OCO2` [compound (Ib), (3S-trans)-3-((6-(5-hydroxy-1-pentyn-1-yl)-1,3-benzodioxol-5-yloxy)methyl)-4-(4-fluorophenyl)-piperidine] the “effect compared to sertraline and paroxetine” value [2] was “significantly higher effects compared to sertraline and paroxetine”, the cell proliferation [2] was 43.6 % of controls and the “effect on cell proliferation” value [2] was “dose dependent decrease in cell proliferation”. The IC50 [3] was 7.6 µM, the IC50 [4, 12] was 19.5 µM and the “potency compared with paroxetine” value ([4]; concentrations higher than 5 μM, FIG. 1C) was “higher potency than paroxetine”.

In the case of `CN[C@H]1CC[C@@H](c2ccc(Cl)c(Cl)c2)c2ccc(C#CCCCOC)cc21.Cl` [compound (Ic), (1S-cis)-4-(3,4-dichlorophenyl)-7-(5-methoxy-1-pentyn-1-yl)-1,2,3,4-tetrahydro-N-methyl-1-naphthalenamine hydrochloride], the inhibition at 10 µM [2] is reported as about 95%, the “effect on cell proliferation” value [2] is reported as “dose dependent decrease in cell proliferation” and the IC50 [3] is reported as 13.5 µM. The IC50 ([4]; FIG. 1B, read-out: IC50, decrease in cell viability) was 17 µM and the “potency compared with sertraline” value ([4]; lower concentrations (1-10 μM), FIG. 1B) was “higher potency than sertraline”.

Compound `C[C@@H]1C[C@H]2[C@@H]3CCC4=CC(=O)C=C[C@]4(C)[C@@]3(F)[C@@H](O)C[C@]2(C)[C@@]1(O)C(=O)CO` [dexamethasone, reference compound] has a cytotoxicity at 20 µM [5] of 8%.

In the case of `COc1cccc2c1C(=O)c1c(O)c3c(c(O)c1C2=O)C[C@@](O)(C(=O)CO)C[C@@H]3O[C@H]1C[C@H](N)[C@H](O)[C@H](C)O1` [doxorubicin, reference compound], the “effect on cell viability compared with the antidepressants and compound (Ia)” value ([6]; 10 and 20 μM, FIG. 2A) is reported as “more pronounced than that produced by the antidepressants and compound (Ia)”, the cell proliferation [2] is reported as 65.7 % of controls and the inhibition at 10 µM [2] is reported as about 95%. It also gave a cytotoxicity at 20 µM (Jurkat Lymphoma cells) of 54% and a viability at 30 µM [7] of 57.7%.

In the case of `CN(C)CCC[C@@]1(c2ccc(F)cc2)OCc2cc(C#N)ccc21` [ecitalopram, reference compound], the effect on cell-viability ([8]; up to 30 μM) is reported as “no effect on cell-viability” and the “effect on cell viability” value ([4]; low concentrations (2.5 and 5.0 μM), FIG. 1A) is reported as “slight decrease in cell-viability”.

With `Fc1ccc([C@@H]2CCNC[C@H]2COc2ccc3c(c2)OCO3)cc1` [paroxetine, reference compound] the caspase-3 activity [9] was “dose dependent increase in the activity of caspase-3”, the IC50 ([8]; Splenocyte, 48 hr, alamar blue, read-out: IC50, inhibition in cell viability) was 11.9 µM and the IC50 [10] was 16 µM. For the same compound, the viability at 30 µM [7] was 74%, the IC50 [3] was 12.3 µM and the “effect on cell viability” value (human glioma U87 cells) was “inhibit this glioma cell-line in a dose dependant fashion”. It also gave an IC50 ([4]; FIG. 1A, read-out: IC50, anti-proliferative activity) of 37.7 µM and an IC50 [4, 12] of 37.6 µM.

`CN[C@H]1CC[C@@H](c2ccc(Cl)c(Cl)c2)c2ccccc21` [sertraline] was tested, and the caspase-3 activity [9] was “dose dependent increase in the activity of caspase-3”, the “potency compared with paroxetine” value ([6]; 10-30 μM, FIG. 2A) was “higher potency than paroxetine” and the “potency compared with paroxetine and fluoxetine” value ([6]; equimolar doses, FIG. 2B) was “significantly more potent than paroxetine and fluoxetine”. The “effect on c-Jun / p-c-Jun (MAPK pathway)” value [11] was “activation of the c-Jun-N-terminal kinase (JNK) pathway”, the viability at 30 µM [7] was 60.3% and the “effect on cell viability” value (human glioma U87 cells) was “inhibit this glioma cell-line in a dose dependant fashion”. For the same compound, the “efficacy compared with paroxetine” value (human glioma U87 cells) was “higher efficacy than paroxetine”, the “decrease in body weight” value ([1]; compared to 5 FU or controls, FIG. 18) was 10% and the “histopathological assessment of spleen, liver and kidney” value ([1]; end of treatment) was “change in capsule fibrosis at random”. The “mean IC70” value (human tumor cell lines) was 13 µM.
